Test results reported in patent US20240148741A1, “FORMULATION FOR ORAL ADMINISTRATION, COMPRISING TRIAZINE DERIVATIVE” (priority 2021, published 2024).

Test: Moisture sorption/desorption isotherm measurement (DVS)
Type: physicochemical
Conditions: for change in mass when the humidity was changed (DVS): 0% to 95% RH, 25° C.
Method: About 15 to 25 mg of a sample was weighed into a sample pan, and measurement was made. Measurement conditions are as follows. • Device: DVS Adventure manufactured by Surface Measurement Systems Ltd. • Measurement points: 0% to 95% RH every 5%, and 95% RH to 0% every 5% • Temperature: 25° C.
Regarding the comparison of the X-ray powder analysis patterns before and after the DVS measurement, measurement was performed by the following method.
• Measuring method: reflection method • Wavelength used: CuKα ray • Tube current: 200 mA • Tube voltage: 45 kV • Sampling plate: aluminum • X-ray incident angle: 2.5° • Sampling width: 0.02° • Detector: HyPix-3000 (two-dimensional detection mode)

## Cn1cnc(Cn2c(=O)[nH]/c(=N\c3cc4cn(C)nc4cc3Cl)n(Cc3cc(F)c(F)cc3F)c2=O)n1
Crystal of Example a (FIG. 6)
  change in mass when the humidity was changed (DVS): No substantial change in mass
Crystal of Step 5-2 of Example 1b (FIG. 18)
  change in mass when the humidity was changed (DVS): No substantial change in mass
Crystal of Step 5-2 of Example 1b (FIG. 19)
  crystalline form before and after the DVS measurement (X-ray powder patterns): did not change
